15 molecules from patent publication US7812022B2 (GlaxoSmithKline LLC, priority 2004, dated 2010) can be followed below.

Each structure is given as a SMILES string. Read-outs that look alike come from different tables or passages of the source.

In assay [1] the target is T1, ErbB2 or EGFR.
T1 construct: enzymes purified from a baculovirus expression system; Reagent production was conducted essentially as described in Brignola, P. S., et al, (2002) J. Biol. Chem. 277(2): 1576-1585
Description: ErbB family substrate phosphorylation enzyme assay (HTRF), Method A or Method B. The class given is biochemical. The method, then: Compounds of the present invention were tested for EGFR, ErbB-2, and ErbB-4 protein tyrosine kinase inhibitory activity in substrate phosphorylation assays using enzymes purified from a baculovirus expression system. Reagent production was conducted essentially as described in Brignola, P. S., et al, (2002) J. Biol. Chem. 277(2): 1576-1585.
The method measures the ability of the isolated enzyme to catalyse the transfer of the gamma-phosphate from ATP onto the tyrosine residue of a biotinylated synthetic peptide referenced “Peptide C” in Brignola, P. S., et al, (2002) J. Biol. Chem. 277(2):1576-1585. The extent of tyrosine phosphorylation was measured using an anti-phosphotyrosine antibody, and quantified by homogenous time-resolved fluorescence (HTRF).
Reactions were performed in black 384-well polystyrene flat-bottom plates in a final volume of 20 ul. Assays were performed by adding 10 μl of each of the following solutions, substrate Mix and enzyme mix: The Substrate mix contained 100 mM 3-[N-morpholino]propanesulfonic acid (MOPS) (pH 7.5), 2 mM MnCl2, 20 μM ATP, 0.01% Tween-20, 0.1 mg/mL (BSA), 0.8 uM peptide substrate, and 1 mM dithiothreitol. The enzyme mix contained 100 mM MOPS (pH7.5); 0.01% Tween-20; 0.1 mg/mL BSA, and either 0.8 nM EGFR, 10 nM ErbB2, or 1 nM ErbB4
During the course of these studies, two separate methods have been used to measure the potency of compounds. In Method A, the substrate mix was added to the compound plates first, then the reaction was started by adding the enzyme mix. In Method B, the enzyme mix was added to the compound plates and the plates were incubated at 20° C. for 1 hour. The reactions were then started by adding the substrate mix.
After initiating the reaction with either method describe above, the reactions were allowed to proceed for 90 minutes at 20° C. The reactions were then terminated by the addition of 20 μl 100 mM EDTA to each well. 40 μl/well of HTRF detection mix were added to the assay plates. The final concentrations of the detection reagents were: 100 mM HEPES (pH7.5), 0.1 mg/mL BSA, 15 nM streptavidin-labeled allophycocyanin (PerkinElmer), and 1 nM europium-labeled anti-phosphotyrosine antibody (PerkinElmer). Assay plates were left unsealed and were counted in a Wallac Multilabel Counter 1420 (PerkinElmer).
Compounds under analysis were dissolved in Me2SO to 1.0 mM and serially diluted 1 to 3 with Me2SO through twelve dilutions. 1 μl of each concentration was transferred to the corresponding well of an assay plate. This creates a final compound concentration range from 0.00027 to 47.6 μM.
The data for dose responses were plotted as % Inhibition calculated with the data reduction formula 100*(1−(U1−C2)/(C1−C2)) versus concentration of compound where U is the unknown value, C1 is the average control value obtained for 4.76% DMSO, and C2 is the average control value obtained for 0.035 M EDTA. Data were fitted with a curve described by: y=((Vmax*x)/(K+x))+Y^2 where Vmax is the upper asymptote, Y2 is the Y intercept, and K is the IC50. The results for each compound were recorded as pIC50s, calculated as follows: pIC50=−Log 10(K)

For assay [2], the system named is BT474 and HN5 tumor cell lines. Nature of the assay: Methylene blue growth inhibition assay (cellular Method A). In kind it is cell-based, Human. As to conditions: 3 days, read-out: Activity (Method): growth inhibition IC50 class. Here is the method: Human breast (BT474) and head and neck (HN5) were cultured in low glucose DMEM (Life Technologies 12320-032) containing 10% fetal bovine serum (FBS). Human colon tumor cells (Colo205) were cultured in DMEM (Invitrogen, 10564) containing 10% FBS. The SV40 transformed human mammary epithelial cell line HB4a was transfected with either human H-ras cDNA (HB4a r4.2) or the human c-ErbB2 cDNA (HB4a c5.2). The HB4a clones were cultured in RPMI containing 10% FBS, insulin (5 g/mL), hydrocortisone (5 g/mL), supplemented with the selection agent hygromycin B (50 g/mL). All lines were grown in a humidified incubator at 37° C. in 95% air, 5% CO2. Cells were harvested using trypsin/EDTA, counted using a haemocytometer, and plated in 100 microliters of the appropriate media, at the following densities, in a 96-well tissue culture plate (Falcon 3075): BT474 10,000 cells/well, HN5 3,000 cells/well. The next day, compounds were diluted in DMEM containing […] gentamicin, at twice the final required concentration, from 10 mM stock solutions in DMSO. 100 microliters/well of these dilutions were added to the 100 microliters of media currently on the cell plates. Medium containing 0.6% DMSO was added to control wells. Compounds diluted in DMEM were added to all cell lines. The final concentration of DMSO in all wells was 0.3%. Cells were returned to the incubator (37° C., 10% CO2) for 3 days. Medium was then removed by aspiration. Cell biomass was estimated by staining cells with 90 microliters per well methylene blue (Sigma M9140, 0.5% in 1:1 ethanol:water), and incubation at rt for at least 30 minutes. Stain was removed, and the plates rinsed by immersion in deionized water and air-dried. To release stain from the cells 100 microliters of solubilization solution was added (1% N-lauroyl sarcosine, Sodium salt, Sigma L5125, in PBS), and plates were shaken gently for about 30 minutes. Optical density at 620 nm was measured on a microplate reader. Percent inhibition of cell growth was calculated relative to vehicle treated control wells. Concentration of compound that inhibits 50% of control cell growth (IC50) was interpolated using nonlinear regression (Levenberg-Marquardt) and the equation, y=Vmax*(1−(x/(K+x)))+Y2, where “K” was equal to the IC50. Method B: Celltiter Glo® Growth Inhibition Assays

[3] abbreviates: Method B: enzyme mix pre-incubated with compound 1 hour at 20° C., started with substrate mix.
[4] abbreviates: Method A: substrate mix added first, reaction started with enzyme mix.

On to `O=C(Nc1cccc(-c2nn3ccccc3c2-c2ccnc(Nc3cccc(F)c3)n2)c1)c1ccsc1` [Example 81, N-[3-(3-{2-[(3-fluorophenyl)amino]-4-pyrimidinyl}pyrazolo[1,5-a]pyridin-2-yl)phenyl]-3-thiophenecarboxamide], for which the “Activity (Method): pIC50 class against ErbB2 or EGFR” value (“Activity (Method): pIC50 class” for short) in assay [1] (setting [3]) is reported as “++ (B) (at least one pIC50 measurement greater than 6 against either ErbB2 or EGFR but no measurement greater than pIC50 of 7)”. The 50% inhibitory concentration (IC50) (in general, the concentration that inhibits the measured activity by half) in assay [2] (Homo sapiens, BT-474, 72 h) lay in the range of 100 to 1000 nM.
As for `Cc1nc2ccc(Nc3nccc(-c4c(-c5cccc(NC(=O)c6c(F)cccc6F)c5)nn5ccccc45)n3)cc2nc1C` [Example 97, N-[3-(3-{2-[(2,3-Dimethyl-6-quinoxalinyl)amino]-4-pyrimidinyl}pyrazolo[1,5-a]pyridin-2-yl)phenyl]-2,6-difluorobenzamide], the IC50 in assay [2] (Homo sapiens, BT-474, 72 h) was 100 to 1000 nM.
On to `COc1ccc(Nc2nccc(-c3c(-c4cccc(NC(=O)c5c(F)cccc5F)c4)nn4ccccc34)n2)cc1N1CCNCC1` [Example 111, 2,6-Difluoro-N-{3-[3-(2-{[4-(methyloxy)-3-(1-piperazinyl)phenyl]amino}-4-pyrimidinyl)pyrazolo[1,5-a]pyridin-2-yl]phenyl}benzamide], for which, in assay [1] (setting [3]), the “Activity (Method): pIC50 class” value was “+++ (B) (at least one pIC50 measurement of greater than 7 against either ErbB2 or EGFR)”. The IC50 in assay [2] (Homo sapiens, BT-474, 72 h) was < 100 nM.
In the same order, the values of `O=C(Nc1cccc(-c2nn3ccccc3c2-c2ccnc(Nc3cccc(F)c3)n2)c1)c1c(F)ccc(F)c1Cl` [Example 21, 2-Chloro-3,6-difluoro-N-(3-{3-[2-(3-fluoro-phenylamino)-pyrimidin-4-yl]-pyrazolo[1,5-a]pyridin-2-yl}-phenyl)-benzamide] are “+++ (B) (at least one pIC50 measurement of greater than 7 against either ErbB2 or EGFR)” and 100 to 1000 nM.
The corresponding values for `O=C(Nc1cccc(-c2nn3ccccc3c2-c2ccnc(Nc3cccc(F)c3)n2)c1)c1cccc(F)c1F` [Example 14, 2,3-Difluoro-N-(3-{3-[2-(3-fluoro-phenylamino)-pyrimidin-4-yl]-pyrazolo[1,5-a]pyridin-2-yl}-phenyl)-benzamide] are “+++ (B) (at least one pIC50 measurement of greater than 7 against either ErbB2 or EGFR)” and < 100 nM.
Take `N#Cc1cccc(Nc2nccc(-c3c(-c4cccc(NC(=O)c5cc(F)ccc5F)c4)nn4ccccc34)n2)c1` [Example 48, N-[3-(3-{2-[(3-Cyanophenyl)amino]-4-pyrimidinyl}pyrazolo[1,5-a]pyridin-2-yl)phenyl]-2,5-difluorobenzamide]: the “Activity (Method): pIC50 class” value in assay [1] (setting [4]) is “+++ (A) (at least one pIC50 measurement of greater than 7 against either ErbB2 or EGFR)”. Further, in assay [2] (Homo sapiens, BT-474, 72 h), the IC50 was < 100 nM.
In the case of `O=C(Nc1cccc(-c2nn3ccccc3c2-c2ccnc(Nc3ccc(Nc4ccccc4)cc3)n2)c1)c1c(F)cccc1F` [Example 96], in assay [1] (setting [4]), the “Activity (Method): pIC50 class” value is given as “++ (A) (at least one pIC50 measurement greater than 6 against either ErbB2 or EGFR but no measurement greater than pIC50 of 7)”. For the same molecule, the IC50 in assay [2] (Homo sapiens, BT-474, 72 h) fell in the range of 100 to 1000 nM.
As to `O=C(Nc1cccc(-c2nn3ccccc3c2-c2ccnc(Nc3ccc(Cl)cc3)n2)c1)c1c(F)cccc1F` [Example 92], the “Activity (Method): pIC50 class” value in assay [1] (setting [4]) was “++ (A) (at least one pIC50 measurement greater than 6 against either ErbB2 or EGFR but no measurement greater than pIC50 of 7)”. In assay [2] (Homo sapiens, BT-474, 72 h), the IC50 is 100 to 1000 nM.
In the same order, the values of `COc1ccc(Nc2nccc(-c3c(-c4cccc(NC(=O)c5c(F)cccc5F)c4)nn4c(C)cccc34)n2)cc1F` [Example 157, 2,6-Difluoro-N-[3-(3-{2-[(3-fluoro-4-methoxy-phenyl)amino]pyrimidin-4-yl}-7-methylpyrazolo[1,5-a]pyridin-2-yl)phenyl]benzamide] are “++ (A) (at least one pIC50 measurement greater than 6 against either ErbB2 or EGFR but no measurement greater than pIC50 of 7)” and 100 to 1000 nM.
As for `Cc1ccc2c(-c3ccnc(Nc4cccc(F)c4)n3)c(-c3cccc(NC(=O)c4cc(F)ccc4F)c3)nn2c1` [Example 40, 2,5-Difluoro-N-[3-(3-{2-[(3-fluorophenyl)amino]-4-pyrimidinyl}-6-methylpyrazolo[1,5-a]pyridin-2-yl)phenyl]benzamide], the IC50 in assay [2] (Homo sapiens, BT-474, 72 h) fell in the range of 100 to 1000 nM.
On to `O=C(Nc1cccc(-c2nn3ccccc3c2-c2ccnc(Nc3cccc(F)c3)n2)c1)c1ccccn1` [Example 76, N-[3-(3-{2-[(3-fluorophenyl)amino]-4-pyrimidinyl}pyrazolo[1,5-a]pyridin-2-yl)phenyl]-2-pyridinecarboxamide], for which the “Activity (Method): pIC50 class” value in assay [1] (method not given) is “+++ (at least one pIC50 measurement of greater than 7 against either ErbB2 or EGFR)”.
On to `CC(c1cccc(Nc2nccc(-c3c(-c4cccc(NC(=O)c5c(F)cccc5F)c4)nn4ccccc34)n2)c1)S(C)(=O)=O` (single isomer, unassigned) [Example 124, 2,6-Difluoro-N-(3-{3-[2-({3-[1-(methylsulfonyl)ethyl]-phenyl}amino)-4-pyrimidinyl]pyrazolo[1,5-a]pyridin-2-yl}phenyl)benzamide], for which, in assay [2], the IC50 was < 100 nM.
For the molecule `O=C(Cc1ccccc1)c1ccc(Nc2nccc(-c3c(-c4cccc(NC(=O)c5c(F)cccc5F)c4)nn4ccccc34)n2)cc1` [Example 102, 2,6-Difluoro-N-{3-[3-(2-{[4-(phenylacetyl)phenyl]-amino}-4-pyrimidinyl)pyrazolo[1,5-a]pyridin-2-yl]-phenyl}benzamide], the IC50 in assay [2] (Homo sapiens, BT-474, 72 h) is 100 to 1000 nM.
Take `CC(c1cccc(Nc2nccc(-c3c(-c4cccc(NC(=O)c5c(F)cccc5F)c4)nn4ccccc34)n2)c1)S(C)(=O)=O` (single isomer, unassigned) [Example 123, 2,6-Difluoro-N-(3-{3-[2-({3-[1-(methylsulfonyl)ethyl]-phenyl}amino)-4-pyrimidinyl]pyrazolo[1,5-a]pyridin-2-yl}phenyl)benzamide]: in assay [2] (Homo sapiens, BT-474, 72 h), the half-maximal inhibitory concentration (IC50) was < 100 nM.
Still for that read-out and setting: as for `O=C(Nc1cccc(-c2nn3ccccc3c2-c2ccnc(Nc3cccc(F)c3)n2)c1)c1ccccn1` [Example 22, Pyridine-2-carboxylic acid (3-{3-[2-(3-fluoro-phenylamino)-pyrimidin-4-yl]-pyrazolo[1,5-a]pyridin-2-yl}-phenyl)-amide], the figure is 100 to 1000 nM.
